Reference: article PMC9230623, “Design, Synthesis, In Vitro Biological Activity Evaluation and Stabilized Nanostructured Lipid Carrier Formulation of Newly Synthesized Schiff Bases-Based TMP Moieties” (Pharmaceuticals, 2022)

How the values were obtained:
[1] = system: MDA-MB-231 breast cancer cell line; assay: Cytotoxic assay against MDA-MB-231 breast cancer cell line; assay type: cell-based; details: Homo sapiens, MDA-MB-231; mean of three independent replicates ± SE; read-out: IC50 Value (μM) MDA-MB-231
Description: The newly prepared Schiff bases 2–5g were screened for their in vitro cytotoxic activity against the MDA-MB-231 breast cancer cell line taking CA-4 as a reference drug. […] In addition, further structure extension to give N-aryl hydrazinyl molecules 4a–5g produced compounds with considerable cytotoxic activity, which may give an indication that the aryl ring is important for cytotoxic activity. […]
Cytotoxic activity of the prepared schiff bases against MDA-MB-231 breast cell Line was determined according previously reported methods. (See Supplementary Materials—Appendix SB).

Row | Compound | melting point [°C] | IC50 [1] [µM]
1 | COc1cc(/C=C(\NC(=O)c2cc(OC)c(OC)c(OC)c2)C(=O)N/N=C/c2ccco2)cc(OC)c1OC [Compound 3, N-((Z)-3-((E)-2-(Furan-2-ylmethylene)hydrazinyl)-3-oxo-1-(3,4,5-trimethoxyphenyl)prop-1-en-2-yl)-3,4,5-trimethoxybenzamide] | 212 to 214 | 6.08 ± 0.42
2 | COc1cc(/C=C(\NC(=O)c2cc(OC)c(OC)c(OC)c2)C(=O)N/N=C/c2cc(OC)c(OC)c(OC)c2)cc(OC)c1OC [Compound 4l, 3,4,5-Trimethoxy-N-((Z)-3-oxo-3-((E)-2-(3,4,5-trimethoxybenzylidene)hydrazinyl)-1-(3,4,5-trimethoxyphenyl)prop-1-en-2-yl)benzamide] |  | 7.3 ± 0.64
3 | COc1ccc(/C(C)=N/NC(=O)/C(=C/c2cc(OC)c(OC)c(OC)c2)NC(=O)c2cc(OC)c(OC)c(OC)c2)cc1OC [Compound 5f, N-((Z)-3-((E)-2-(1-(3,4-Dimethoxyphenyl)ethylidene)hydrazinyl)-3-oxo-1-(3,4,5-trimethoxyphenyl)prop-1-en-2-yl)-3,4,5-trimethoxybenzamide] | 234 to 236 | 8.34 ± 1.22
4 | COc1cc(/C=C(\NC(=O)c2cc(OC)c(OC)c(OC)c2)C(=O)N/N=C/c2ccc(C)cc2)cc(OC)c1OC [Compound 4f, 3,4,5-Trimethoxy-N-((Z)-3-((E)-2-(4-methylbenzylidene)hydrazinyl)-3-oxo-1-(3,4,5-trimethoxyphenyl)prop-1-en-2-yl)benzamide] | 208 to 210 | 4.52 ± 0.36
5 | COc1ccc(/C=N/NC(=O)/C(=C/c2cc(OC)c(OC)c(OC)c2)NC(=O)c2cc(OC)c(OC)c(OC)c2)cc1 [Compound 4g, 3,4,5-Trimethoxy-N-((Z)-3-((E)-2-(4-methoxybenzylidene)hydrazinyl)-3-oxo-1-(3,4,5-trimethoxyphenyl)prop-1-en-2-yl)benzamide] | 217 to 219 | 3.43 ± 0.22
6 | C/C=N/NC(=O)/C(=C/c1cc(OC)c(OC)c(OC)c1)NC(=O)c1cc(OC)c(OC)c(OC)c1 [Compound 2, N-((Z)-3-((E)-2-Ethylidenehydrazinyl)-3-oxo-1-(3,4,5-trimethoxyphenyl)prop-1-en-2-yl)-3,4,5-trimethoxybenzamide] | 224 to 226 | 31.6 ± 1.07
7 | COc1cc(/C=C(\NC(=O)c2cc(OC)c(OC)c(OC)c2)C(=O)N/N=C/c2ccccc2[N+](=O)[O-])cc(OC)c1OC [Compound 4c, 3,4,5-Trimethoxy-N-((Z)-3-((E)-2-(2-nitrobenzylidene)hydrazinyl)-3-oxo-1-(3,4,5-trimethoxyphenyl)prop-1-en-2-yl)benzamide] | 239 to 241 | 38.8 ± 0.93
8 | COc1cc(/C=C(\NC(=O)c2cc(OC)c(OC)c(OC)c2)C(=O)N/N=C(\C)c2ccc(Cl)cc2)cc(OC)c1OC [Compound 5b, N-((Z)-3-((E)-2-(1-(4-Chlorophenyl)ethylidene)hydrazinyl)-3-oxo-1-(3,4,5-trimethoxyphenyl)prop-1-en-2-yl)-3,4,5-trimethoxybenzamide] | 249 to 251 | 14 ± 1.19
9 | COc1cc(/C=N/NC(=O)/C(=C/c2cc(OC)c(OC)c(OC)c2)NC(=O)c2cc(OC)c(OC)c(OC)c2)ccc1O [Compound 4j, N-((Z)-3-((E)-2-(4-Hydroxy-3-methoxybenzylidene)hydrazinyl)-3-oxo-1-(3,4,5-trimethoxyphenyl)prop-1-en-2-yl)-3,4,5-trimethoxybenzamide] | 226 to 228 | 2.84 ± 0.18
10 | COc1cc(/C=N/NC(=O)/C(=C/c2cc(OC)c(OC)c(OC)c2)NC(=O)c2cc(OC)c(OC)c(OC)c2)cc(OC)c1 [Compound 4k, N-((Z)-3-((E)-2-(3,5-Dimethoxybenzylidene)hydrazinyl)-3-oxo-1-(3,4,5-trimethoxyphenyl)prop-1-en-2-yl)-3,4,5-trimethoxybenzamide] | 214 to 216 | 4.8 ± 0.17
11 | COc1cc(/C=C(\NC(=O)c2cc(OC)c(OC)c(OC)c2)C(=O)N/N=C/c2ccc(O)cc2)cc(OC)c1OC [Compound 4e, N-((Z)-3-((E)-2-(4-Hydroxybenzylidene)hydrazinyl)-3-oxo-1-(3,4,5-trimethoxyphenyl)prop-1-en-2-yl)-3,4,5-trimethoxybenzamide] |  | 7.1 ± 1.02
12 | COc1cc(/C=C(\NC(=O)c2cc(OC)c(OC)c(OC)c2)C(=O)N/N=C(\C)c2ccc(Br)cc2)cc(OC)c1OC [Compound 5c, N-((Z)-3-((E)-2-(1-(4-Bromophenyl)ethylidene)hydrazinyl)-3-oxo-1-(3,4,5-trimethoxyphenyl)prop-1-en-2-yl)-3,4,5-trimethoxybenzamide] | 244 to 246 | 20.7 ± 1.84
13 | COc1cc(/C=C(\NC(=O)c2cc(OC)c(OC)c(OC)c2)C(=O)N/N=C/c2ccc(F)cc2)cc(OC)c1OC [Compound 4a, N-((Z)-3-((E)-2-(4-Fluorobenzylidene)hydrazinyl)-3-oxo-1-(3,4,5-trimethoxyphenyl)prop-1-en-2-yl)-3,4,5-trimethoxybenzamide] | 201 to 203 | 23.7 ± 1.13
14 | COc1cc(/C=C(\NC(=O)c2cc(OC)c(OC)c(OC)c2)C(=O)N/N=C(\C)c2ccc(O)cc2)cc(OC)c1OC [Compound 5d, N-((Z)-3-((E)-2-(1-(4-Hydroxyphenyl)ethylidene)hydrazinyl)-3-oxo-1-(3,4,5-trimethoxyphenyl)prop-1-en-2-yl)-3,4,5-trimethoxybenzamide] | 258 to 260 | 1.98 ± 0.19
15 | COc1cc(/C=C(\NC(=O)c2cc(OC)c(OC)c(OC)c2)C(=O)N/N=C/c2ccc(N(C)C)cc2)cc(OC)c1OC [Compound 4i, N-((Z)-3-((E)-2-(4-(Dimethylamino)benzylidene)hydrazinyl)-3-oxo-1-(3,4,5-trimethoxyphenyl)prop-1-en-2-yl)-3,4,5-trimethoxybenzamide] | 243 to 245 | 3.46 ± 0.51
16 | COc1ccc(/C(C)=N/NC(=O)/C(=C/c2cc(OC)c(OC)c(OC)c2)NC(=O)c2cc(OC)c(OC)c(OC)c2)cc1 [Compound 5e, 3,4,5-Trimethoxy-N-((Z)-3-((E)-2-(1-(4-methoxyphenyl)ethylidene)hydrazinyl)-3-oxo-1-(3,4,5-trimethoxyphenyl)prop-1-en-2-yl)benzamide] | 241 to 243 | 9.52 ± 1.18
17 | COc1cc(/C=C(\NC(=O)c2cc(OC)c(OC)c(OC)c2)C(=O)N/N=C/c2ccc(Cl)cc2)cc(OC)c1OC [Compound 4b, N-((Z)-3-((E)-2-(4-Chlorobenzylidene)hydrazinyl)-3-oxo-1-(3,4,5-trimethoxyphenyl)prop-1-en-2-yl)-3,4,5-trimethoxybenzamide] | 233 to 235 | 16.1 ± 0.83
18 | COc1cc(/C=C(\NC(=O)c2cc(OC)c(OC)c(OC)c2)C(=O)N/N=C/c2ccccc2O)cc(OC)c1OC [Compound 4d, N-((Z)-3-((E)-2-(2-Hydroxybenzylidene)hydrazinyl)-3-oxo-1-(3,4,5-trimethoxyphenyl)prop-1-en-2-yl)-3,4,5-trimethoxybenzamide] | 220 to 222 | 5.98 ± 0.28
19 | COc1cc(/C=C(\NC(=O)c2cc(OC)c(OC)c(OC)c2)C(=O)N/N=C(\C)c2ccccc2)cc(OC)c1OC [Compound 5a, 3,4,5-Trimethoxy-N-((Z)-3-oxo-3-((E)-2-(1-phenylethylidene)hydrazinyl)-1-(3,4,5-trimethoxyphenyl)prop-1-en-2-yl)benzamide] | 260 to 262 | 20.2 ± 0.89
